Columns and labels:
[1] = system: liver; conditions: classification of the substance (Cr+/Cr−); cited from earlier work
[2] = classification of the substance (M+/M−); cited from earlier work
[3] = system: mRNA expressed from the genes (A) to (D) in rat liver; assay: Behavior of genes (mRNA expression level, oligo-DNA microarray) in rat liver after 28-day oral administration; assay type: in vivo; conditions: mRNA vs vehicle control group; for Behavior of gene caused by administration of chemical substance, Gene No. 4846 / Behavior of gene caused by administration of chemical substance, Gene No. 2026 / Behavior of gene caused by administration of chemical substance, Gene No. 4218 / Behavior of gene caused by administration of chemical substance, Gene No. 6182 / Behavior of gene caused by administration of chemical substance, Gene No. 5600: gene group (A); for Behavior of gene caused by administration of chemical substance, Gene No. 4846: Unigene No. Rn.144554; for Behavior of gene caused by administration of chemical substance, Gene No. 2026 / Behavior of gene caused by administration of chemical substance, Gene No. 4218: Unigene No. Rn.167075; for Behavior of gene caused by administration of chemical substance, Gene No. 6182: Unigene No. Rn.5834; for Behavior of gene caused by administration of chemical substance, Gene No. 5600: Unigene No. Rn.9836; for Behavior of gene caused by administration of chemical substance, Gene No. 1494 / Behavior of gene caused by administration of chemical substance, Gene No. 2045 / Behavior of gene caused by administration of chemical substance, Gene No. 2203: gene group (B); for Behavior of gene caused by administration of chemical substance, Gene No. 1494: Unigene No. Rn.1430; for Behavior of gene caused by administration of chemical substance, Gene No. 2045: Unigene No. Rn.19329; for Behavior of gene caused by administration of chemical substance, Gene No. 2203: Unigene No. Rn.21240; for Behavior of gene caused by administration of chemical substance, Gene No. 533 / Behavior of gene caused by administration of chemical substance, Gene No. 725 / Behavior of gene caused by administration of chemical substance, Gene No. 1163 / Behavior of gene caused by administration of chemical substance, Gene No. 4973 / Behavior of gene caused by administration of chemical substance, Gene No. 4095 / Behavior of gene caused by administration of chemical substance, Gene No. 1334 / Behavior of gene caused by administration of chemical substance, Gene No. 6620 / Behavior of gene caused by administration of chemical substance, Gene No. 6303 / Behavior of gene caused by administration of chemical substance, Gene No. 5878 / Behavior of gene caused by administration of chemical substance, Gene No. 1131 / Behavior of gene caused by administration of chemical substance, Gene No. 1562 / Behavior of gene caused by administration of chemical substance, Gene No. 1741 / Behavior of gene caused by administration of chemical substance, Gene No. 893 / Behavior of gene caused by administration of chemical substance, Gene No. 6026 / Behavior of gene caused by administration of chemical substance, Gene No. 154 / Behavior of gene caused by administration of chemical substance, Gene No. 1993 / Behavior of gene caused by administration of chemical substance, Gene No. 813 / Behavior of gene caused by administration of chemical substance, Gene No. 2494 / Behavior of gene caused by administration of chemical substance, Gene No. 2546 / Behavior of gene caused by administration of chemical substance, Gene No. 3776 / Behavior of gene caused by administration of chemical substance, Gene No. 3929 / Behavior of gene caused by administration of chemical substance, Gene No. 1119 / Behavior of gene caused by administration of chemical substance, Gene No. 6742 / Behavior of gene caused by administration of chemical substance, Gene No. 5634: gene group (C); for Behavior of gene caused by administration of chemical substance, Gene No. 533: Unigene No. Rn.106184; for Behavior of gene caused by administration of chemical substance, Gene No. 725: Unigene No. Rn.108075; for Behavior of gene caused by administration of chemical substance, Gene No. 1163: Unigene No. Rn.11766; for Behavior of gene caused by administration of chemical substance, Gene No. 4973: Unigene No. Rn.118529; for Behavior of gene caused by administration of chemical substance, Gene No. 4095: Unigene No. Rn.119024; for Behavior of gene caused by administration of chemical substance, Gene No. 1334 / Behavior of gene caused by administration of chemical substance, Gene No. 6620: Unigene No. Rn.120914; for Behavior of gene caused by administration of chemical substance, Gene No. 6303: Unigene No. Rn.123063; for Behavior of gene caused by administration of chemical substance, Gene No. 5878: Unigene No. Rn.143213; for Behavior of gene caused by administration of chemical substance, Gene No. 1131: Unigene No. Rn.144946; for Behavior of gene caused by administration of chemical substance, Gene No. 1562: Unigene No. Rn.14744; for Behavior of gene caused by administration of chemical substance, Gene No. 1741: Unigene No. Rn.1647; for Behavior of gene caused by administration of chemical substance, Gene No. 893: Unigene No. Rn.164817; for Behavior of gene caused by administration of chemical substance, Gene No. 6026: Unigene No. Rn.167685; for Behavior of gene caused by administration of chemical substance, Gene No. 154: Unigene No. Rn.185941; for Behavior of gene caused by administration of chemical substance, Gene No. 1993: Unigene No. Rn.18728; for Behavior of gene caused by administration of chemical substance, Gene No. 813: Unigene No. Rn.201760; for Behavior of gene caused by administration of chemical substance, Gene No. 2494: Unigene No. Rn.23969; for Behavior of gene caused by administration of chemical substance, Gene No. 2546: Unigene No. Rn.24561; for Behavior of gene caused by administration of chemical substance, Gene No. 3776: Unigene No. Rn.43232; for Behavior of gene caused by administration of chemical substance, Gene No. 3929: Unigene No. Rn.4620; for Behavior of gene caused by administration of chemical substance, Gene No. 1119: Unigene No. Rn.9757; for Behavior of gene caused by administration of chemical substance, Gene No. 6742: Unigene No. Rn.9779; for Behavior of gene caused by administration of chemical substance, Gene No. 5634: Unigene No. Rn.9862; for Behavior of gene caused by administration of chemical substance, Gene No. 5726: gene group (D), Unigene No. Rn.9939
Outline: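 Liver mRNA measured by oligo-DNA microarray after 28 days of once-daily oral gavage in 5-week-old male F344 rats (n=4 per group), with vehicle controls given equal solvent volume. Significance threshold: 1.5-fold up or down versus control, with changes opposite in direction to other carcinogens counted as not significant.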

[4] = system: rodent; conditions: classification of the substance (C+/C−); cited from earlier work

Row | SMILES | Liver carcinogenicity [1] | Mutagenicity by Ames test [2] | Behavior of gene caused by administration of chemical substance, Gene No. 4846 [3] | Behavior of gene caused by administration of chemical substance, Gene No. 2026 [3] | Behavior of gene caused by administration of chemical substance, Gene No. 4218 [3] | Behavior of gene caused by administration of chemical substance, Gene No. 6182 [3] | Behavior of gene caused by administration of chemical substance, Gene No. 5600 [3] | Behavior of gene caused by administration of chemical substance, Gene No. 1494 [3] | Behavior of gene caused by administration of chemical substance, Gene No. 2045 [3] | Behavior of gene caused by administration of chemical substance, Gene No. 2203 [3] | Behavior of gene caused by administration of chemical substance, Gene No. 533 [3] | Behavior of gene caused by administration of chemical substance, Gene No. 725 [3] | Behavior of gene caused by administration of chemical substance, Gene No. 1163 [3] | Behavior of gene caused by administration of chemical substance, Gene No. 4973 [3] | Behavior of gene caused by administration of chemical substance, Gene No. 4095 [3] | Behavior of gene caused by administration of chemical substance, Gene No. 1334 [3] | Behavior of gene caused by administration of chemical substance, Gene No. 6620 [3] | Behavior of gene caused by administration of chemical substance, Gene No. 6303 [3] | Behavior of gene caused by administration of chemical substance, Gene No. 5878 [3] | Behavior of gene caused by administration of chemical substance, Gene No. 1131 [3] | further results
1 | CCN(N=O)C(N)=O [TS050, N-Ethyl-N-nitrosourea] | Cr− | M+ | − | − | − | + | − | − | − | − | − | − | − | − | − | − | − | + | − | − | Behavior of gene caused by administration of chemical substance, Gene No. 1562 [3]: −; Behavior of gene caused by administration of chemical substance, Gene No. 1741 [3]: −; Behavior of gene caused by administration of chemical substance, Gene No. 893 [3]: −; Behavior of gene caused by administration of chemical substance, Gene No. 6026 [3]: −; Behavior of gene caused by administration of chemical substance, Gene No. 154 [3]: −; Behavior of gene caused by administration of chemical substance, Gene No. 1993 [3]: −; Behavior of gene caused by administration of chemical substance, Gene No. 813 [3]: −; Behavior of gene caused by administration of chemical substance, Gene No. 2494 [3]: −; Behavior of gene caused by administration of chemical substance, Gene No. 2546 [3]: −; Behavior of gene caused by administration of chemical substance, Gene No. 3776 [3]: −; Behavior of gene caused by administration of chemical substance, Gene No. 3929 [3]: −; Behavior of gene caused by administration of chemical substance, Gene No. 1119 [3]: −; Behavior of gene caused by administration of chemical substance, Gene No. 6742 [3]: −; Behavior of gene caused by administration of chemical substance, Gene No. 5634 [3]: −; Behavior of gene caused by administration of chemical substance, Gene No. 5726 [3]: +; Carcinogenicity [4]: C+
2 | O=C(O)C(Cl)(Cl)Cl [TS051, Trichloroacetic acid] | Cr− | M− | − | − | − | − | − | − | − | − | − | + | − | + | + | − | − | − | − | − | Behavior of gene caused by administration of chemical substance, Gene No. 1562 [3]: −; Behavior of gene caused by administration of chemical substance, Gene No. 1741 [3]: −; Behavior of gene caused by administration of chemical substance, Gene No. 893 [3]: −; Behavior of gene caused by administration of chemical substance, Gene No. 6026 [3]: −; Behavior of gene caused by administration of chemical substance, Gene No. 154 [3]: −; Behavior of gene caused by administration of chemical substance, Gene No. 1993 [3]: −; Behavior of gene caused by administration of chemical substance, Gene No. 813 [3]: −; Behavior of gene caused by administration of chemical substance, Gene No. 2494 [3]: −; Behavior of gene caused by administration of chemical substance, Gene No. 2546 [3]: −; Behavior of gene caused by administration of chemical substance, Gene No. 3776 [3]: −; Behavior of gene caused by administration of chemical substance, Gene No. 3929 [3]: −; Behavior of gene caused by administration of chemical substance, Gene No. 1119 [3]: −; Behavior of gene caused by administration of chemical substance, Gene No. 6742 [3]: −; Behavior of gene caused by administration of chemical substance, Gene No. 5634 [3]: −; Behavior of gene caused by administration of chemical substance, Gene No. 5726 [3]: +; Carcinogenicity [4]: C+

Source: patent US20110039721A1, “METHOD FOR PREDICTION ABOUT CARCINOGENICITY OF SUBSTANCE IN RODENT” (Chemicals Evaluation and Research Institute, priority 2007, published 2011)
